The values that follow come from patent publication US5143906A, “Kedarcidin antitumor chromophore and pharmaceutical composition containing same” (Bristol-Myers Squibb Company, priority 1991, dated 1992).

The test system of data set [1] is ip implanted P388 leukemia. In words: Antitumor activity against ip implanted P388 leukemia. The arrangement: Med. surv. time: unit not given here. It counts as in vivo, murine (CDF1 mice). The source says: (§1) The P388 tumor was maintained in ascitic form in DBA/2 mice. Experimental tumor models used CDF^1 mice implanted via the intraperitoneal or intravenous route with 1×10^6 leukemia cells on day 0 and dosed with drugs according to the indicated route and schedule. Mice were weighed on day 0 and on day 5 or 6. Weight loss of 20% or greater was an indicator of drug toxicity. Each dose group consisted of 6 mice with 10 mice in the untreated control group. The dosing schedule was Q1DX1;1. Death checks were performed daily and the median life span of each group determined. […] Experiments were terminated on or about day 30.

Data set [2] concerns iv implanted P388 leukemia. Put plainly: Antitumor activity against iv implanted P388 leukemia. Format: in vivo, murine (CDF1 mice). Also noted: Med. surv. time: unit not given here.
Excerpt: as §1

The test system of data set [3] is human colon adenocarcinoma HCT116 drug sensitive line. In words: In vitro cytotoxicity assay (XTT), HCT116. As to conditions: Homo sapiens, HCT-116; HCT116, 72 h; VP-16 values: mean of triplicate determinations from last 6 experiments; read-out: IC50. It counts as cell-based. On the procedure:
(§2) The A2780/DDP cell line is reported to be resistant through enhanced DNA repair mechanisms and elevated GSH/GST levels. Cells were cultured in McCoy's media and 10% fetal bovine serum. When in log phase growth, 4×10^3 cells/well were plated into 96 well microtiter plates and incubated at 37° C. in […] /5% CO2 for 24 hours to allow cell attachment. Compounds were added to the top row of wells, serially diluted (4 fold dilutions) and incubated for an additional 72 hours. The number of viable cells in each well was then quantitated as previously described^2 by adding 0.05 mg/ml final concentration tetrazolium stain (XTT) in the presence of 0.005 mM final concentration phenazine methosulfate. After incubation at room temperature for 3 hours to allow color development, optical density values were measured using a Dynatech MR600 plate reader at […]. IC50 values (drug concentration inhibiting cell growth by 50%) were calculated using linear regression analysis of the optical density readings. Triplicate determinations on separate 96 well plates were done for each drug on each cell line tested.
(In general: Tetrazolium dyes change colour on reduction, which living cells bring about.)

Data set [4] has as its system HCT116/VP35 drug resistant cell line. In words: In vitro cytotoxicity assay (XTT), HCT116/VP35. The note with it: Homo sapiens, HCT-116; HCT116/VP35, 72 h; VP-16 values: mean of triplicate determinations from last 6 experiments; read-out: IC50. It counts as cell-based, human. On the procedure:
as §2

The subject of data set [5] is HCT116/VM46 drug resistant cell line. In words: In vitro cytotoxicity assay (XTT), HCT116/VM46. The note with it: Homo sapiens, HCT-116/VM46; HCT116/VM46, 72 h; VP-16 values: mean of triplicate determinations from last 6 experiments; read-out: IC50. It counts as cell-based, human. On the procedure:
as §2

Data set [6] relates to human ovarian carcinoma A2780 drug sensitive cell line. In words: In vitro cytotoxicity assay (XTT), A2780. It counts as cell-based. The note with it: Homo sapiens; A2780, 72 h; VP-16 values: mean of triplicate determinations from last 6 experiments; read-out: IC50. On the procedure:
as §2

The test system of data set [7] is A2780/DDP drug resistant cell line. Put plainly: In vitro cytotoxicity assay (XTT), A2780/DDP. It counts as cell-based, human. On the procedure: as §2

Structures are written as SMILES. Converted amounts (≈) assume the structure as drawn.

For `CO[C@@]12[C@H](COC(N)=O)C3=C(C(=O)C(C)=C(N)C3=O)N1C[C@@H]1N[C@@H]12` [Mitomycin C, reference compound], the “% T/C” value in data set [1] (Exp. 8305, 3.2 mg/kg/dose) is given as 200%; in data set [1] (Exp. 8305, 4.8 mg/kg/dose), 230%; in data set [1] (Exp. 8328, 3.2 mg/kg/dose), 190%; in data set [1] (Exp. 8328, 4.8 mg/kg/dose), 200%; in data set [2] (Exp. 8305, 0.8 mg/kg/dose), 114%; in data set [2] (Exp. 8305, 1.6 mg/kg/dose) it was 143%. Moreover, the “% T/C” value in data set [2] (Exp. 8305, 3.2 mg/kg/dose) is listed as 157%; in data set [2] (Exp. 8305, 4.8 mg/kg/dose), 193%; in data set [2] (Exp. 8328, 1.6 mg/kg/dose), 129%; in data set [2] (Exp. 8328, 3.2 mg/kg/dose), 143%. Besides, the Av. wgt. change in data set [1] (Exp. 8305, 3.2 mg/kg/dose) is on record as -0.5 g; in data set [1] (Exp. 8305, 4.8 mg/kg/dose) it was -0.7 g; in data set [1] (Exp. 8328, 3.2 mg/kg/dose), -0.8 g; in data set [1] (Exp. 8328, 4.8 mg/kg/dose), -0.5 g; in data set [2] (Exp. 8305, 0.8 mg/kg/dose) it was 0.4 g; in data set [2] (Exp. 8305, 1.6 mg/kg/dose) it was -0.3 g. Also, the Av. wgt. change in data set [2] (Exp. 8305, 3.2 mg/kg/dose) is 0.5 g; in data set [2] (Exp. 8305, 4.8 mg/kg/dose) it was -0.8 g; in data set [2] (Exp. 8328, 1.6 mg/kg/dose), -0.1 g; in data set [2] (Exp. 8328, 3.2 mg/kg/dose), -0.7 g. In addition, the Med. surv. time in data set [1] (Exp. 8305, 3.2 mg/kg/dose) was determined as 20.0; in data set [1] (Exp. 8305, 4.8 mg/kg/dose), 23.0; in data set [1] (Exp. 8328, 3.2 mg/kg/dose), 19.0; in data set [1] (Exp. 8328, 4.8 mg/kg/dose), 20.0; in data set [2] (Exp. 8305, 0.8 mg/kg/dose), 8.0; in data set [2] (Exp. 8305, 1.6 mg/kg/dose), 10.0. Moreover, the Med. surv. time was determined as 11.0 in data set [2] (Exp. 8305, 3.2 mg/kg/dose); 13.5 in data set [2] (Exp. 8305, 4.8 mg/kg/dose); 9.0 in data set [2] (Exp. 8328, 1.6 mg/kg/dose); 10.0 in data set [2] (Exp. 8328, 3.2 mg/kg/dose). Besides, the “No. of mice alive on d 5” value in data set [1] (Exp. 8305, 3.2 mg/kg/dose) is on record as 6/6; in data set [1] (Exp. 8305, 4.8 mg/kg/dose), 6/6; in data set [1] (Exp. 8328, 3.2 mg/kg/dose) it was 6/6; in data set [1] (Exp. 8328, 4.8 mg/kg/dose) it was 6/6; in data set [2] (Exp. 8305, 0.8 mg/kg/dose), 6/6; in data set [2] (Exp. 8305, 1.6 mg/kg/dose), 6/6. Also, the “No. of mice alive on d 5” value in data set [2] (Exp. 8305, 3.2 mg/kg/dose) was 6/6; in data set [2] (Exp. 8305, 4.8 mg/kg/dose) it was 6/6; in data set [2] (Exp. 8328, 1.6 mg/kg/dose), 6/6; in data set [2] (Exp. 8328, 3.2 mg/kg/dose), 6/6.

As for `COc1cc([C@@H]2c3cc4c(cc3[C@@H](O[C@@H]3O[C@@H]5CO[C@@H](C)O[C@H]5[C@H](O)[C@H]3O)[C@H]3COC(=O)[C@H]23)OCO4)cc(OC)c1O` [VP-16, etoposide, reference compound], the IC50 was determined as 0.69 µg/mL (≈ 1.17 µM) in data set [3]; 8.76 µg/mL (≈ 14.9 µM) in data set [4]; 3.25 µg/mL (≈ 5.53 µM) in data set [5]; 0.057 µg/mL (≈ 0.0968 µM) in data set [6]; 0.379 µg/mL (≈ 0.644 µM) in data set [7] (Homo sapiens, A2780/DDP, 72 h, VP-16 values: mean of triplicate determinations from last 6 experiments, read-out: IC50). In addition, the “fold less potent on the resistant cell line compared to the sensitive cell line” value in data set [7] (A2780/DDP vs A2780, 4320 min) is recorded as “about 6.6 fold”.

One may read the IC50 as the concentration that inhibits the measured activity by half.
